Experiments:
[1] = test system: stomach ulcer model induced by NSAIDs; assay: Stomach ulcer induced by NSAIDs in rats, lyophilized NSAID and trehalose vs NSAID alone (Working Example 1); type: in vivo, rat; conditions: trehalose 800 mg/kg, oral, 5 hours, average±standard deviation
Protocol: Each of the test substances were adjusted by suspending or dissolving them into 0.5% CMC.Na solution. Each of 9 mL of Liquid doses was given per 1 kg weight by oral dose. 0.5% CMC.Na solutions were given to control group.
(§1) We bought Winster male rats (Japan SLC) that were 8 weeks old. We breed these rats keeping 20 to 26 degrees C., humidity of 30 to 70%, housing 2 to 3 rats in a rat breeding gage (mouse and rat breeding CE-2), giving enough amount of filtered tap water. After breeding 7 days, 5 to 10 rats per group were picked to execute the example. The rats were fasting for 24 hours without giving no food and then the rats were fed no food and no water for 1 hour just before the examination.
From 11 am on the previous day of the examination date, the rats were kept fasting and test substances were fed though mouse. After 5 hours passed, these rats were killed by carbon dioxide gas and stomachs were picked up. The duodenums were tagged. 6 mL of neutral formalin was poured from the esophagi so as to fix the stomachs for 30 minutes. The stomachs were cut along with the greater curvature. The cut stomachs were gently washed by saline, the presence of blood spot were observed by a stereoscopic microscope. The area of blood spots was measured by 0.5 mm×0.5 mm unit as an index of ulcer and the sum of each animal was calculated. The rate of suppressed ulcer was calculated, using the ulcer index for the group in which each of test sample was given and the group in which trehalose was also given, in accordance with the following equation.
(§2) Rate of suppressed ulcer(%)=[1−A/B]×100 • […]

[2] = test system: gastric mucosal disorder (ulcer) induced by NSAIDs; assay: Gastric mucosal disorder in rats: NSAID alone, mixture with trehalose, lyophilized with trehalose (Working Example 2); type: in vivo; conditions: rat, oral, 5 hours, trehalose 800 mg/kg
Protocol: The liquid doses were prepared on the date when the examination was executed. Weighted NSAIDs were suspended or dissolved into 0.5% CMC.Na solution to prepare doses of administrating NSAIDs only. Suspension of NSAIDs and solution of trehalose were prepared. […] For each groups the amount of dose was 8 mL per kg or rat.
as §1
From 11 am on the previous day of the examination date, the rats were kept fasting and test substances were fed though mouse. After 5 hours passed, these rats were killed by carbon dioxide gas and stomachs were picked up. The duodenums were tagged. 6 mL of neutral formalin were poured from the esophagi so as to fix the stomachs for 30 minutes. The stomachs were cut along with the greater curvature. The cut stomachs were gently washed by saline, the presence of blood spot were observed by a stereoscopic microscope.
The area of blood spots was measured by 0.5 mm×0.5 mm unit as an index of ulcer and the sum of each animals was calculated. The rate of suppressed ulcer was calculated, using the ulcer index for the group in which each of test samples were given and the group in which trehalose was also given, in accordance with the following equation.
as §2

CC(=O)Oc1ccccc1C(=O)O [Aspirin alone, aspirin]
ulcer (area of blood spots, ulcer index) ([1]; stomach ulcer model induced by aspirin, aspirin 200 mg/kg): 10.40±2.80 mm^2
Ulcer index (mm^2, average ± standard deviation) ([2]; aspirin 200 mg/kg): 10.40 ± 2.73 mm^2
Ulcer index (mm^2, average ± standard deviation) ([2]; aspirin 200 mg/kg, listed as aspirin alone): 10.40±2.73 mm^2

O=C(O)Cc1ccccc1Nc1c(Cl)cccc1Cl [Diclofenac alone, sodium diclofenac]
ulcer (area of blood spots, ulcer index) ([1]; stomach ulcer model induced by diclofenac, diclofenac 40 mg/kg): 4.30±0.71 mm^2
Ulcer index (mm^2, average ± standard deviation) ([2]; diclofenac 40 mg/kg): 4.30 ± 0.71 mm^2
Ulcer index (mm^2, average ± standard deviation) ([2]; diclofenac 40 mg/kg, listed as diclofenac alone): 4.30±0.71 mm^2

COc1ccc2c(c1)c(CC(=O)O)c(C)n2C(=O)c1ccc(Cl)cc1 [Indomethacin alone, indomethacin]
ulcer (area of blood spots, ulcer index) ([1]; stomach ulcer model induced by indomethacin, indomethacin 30 mg/kg): 4.83±0.90 mm^2
Ulcer index (mm^2, average ± standard deviation) ([2]; indomethacin 30 mg/kg): 4.83 ± 0.90 mm^2
Ulcer index (mm^2, average ± standard deviation) ([2]; indomethacin 30 mg/kg, listed as indomethacin alone): 4.83±0.90 mm^2

CC(C)Cc1ccc(C(C)C(=O)O)cc1 (stereo not shown) [ibuprofen alone, ibuprofen]
ulcer (area of blood spots, ulcer index) ([1]; stomach ulcer model induced by ibuprofen, ibuprofen 400 mg/kg): 5.35±1.86 mm^2
